Source: US6566401B2, “N-acetylcysteine compositions and methods for the treatment and prevention of drug toxicity” (The Board of Trustees of the Leland Stanford Junior …, priority 2001, dated 2003)

Columns and labels:
[1] = effects counter to those reported for NAC; cited from earlier work
[2] = cited from earlier work
[3] = NAC treatment of subjects taking AZT: hematologic toxicity; type: in vivo, human; conditions: HIV disease
Excerpt: Results have shown that acetaminophen usage, which lowers glutathione levels exacerbates AZT toxicity. Richman, et al. (1987) N. Eng. J. Med. 317: 192-97. De Rosa et al. recently have shown that treatment with NAC which increases glutathione levels decreases the toxicity. De Rosa et al., submitted to JAMA for publication.
It appears that NAC provides cysteine needed to redress the excessive sulfur loss that occurs in HIV disease and specifically to replenish intracellular glutathione. […] This decreases the AZT-mediated inhibition of erythroid development, helps to improve the overall metabolism and stability of erythrocytes and their progenitors (for example, by enabling optimal functioning of the glucose-6-phosphate dehydrogenase and other energy-supplying pathways). In addition, it improves the cell's ability to withstand the production of oxidants induced by the introduction of drugs (such as AZT) and the internal production of molecules (such as TNF and HIV-TAT) that trigger intracellular oxidant production.

Compound: CC(=O)N[C@@H](CSSC[C@H](NC(C)=O)C(=O)O)C(=O)O [oxidized form of NAC, di-n-acetylcysteine]
- bioactive dose relative to NAC (fold less than NAC) [1]: 10-100 fold

Compound: CC(=O)N[C@@H](CS)C(=O)O [NAC, N-acetylcysteine]
- half-cell potential for the NAC thiol/disulfide pair [2]: about +63 mV
- effect of NAC treatment on AZT's hematologic toxicity [3]: decreases AZT's hematologic toxicity
